Measurements taken from patent US20070161704A1, “Pharmaceutical composition useful for treating chronic myeloid leukemia” (COUNCIL OF SCIENTIFIC AND INDUSTRIAL RESEARCH, priority 2002, published 2007).
Entries after “also recorded” stand apart in the source; their conditions may differ.

Assays:
[1] = test system: normal human peripheral blood mononuclear cells (HPBMC); assay: Cytokine production by HPBMC (ELISA); type: cell-based; conditions: for Concentration of Cytokines: IFN-γ / Concentration of Cytokines: IL-2 / Concentration of Cytokines: IL-6: HPBMC, 18 hrs
Description: Supernatants were collected and quantitated for IL-2, IFN-γ, IL-6 by commercial ELISA.

[2] = test system: Bcr-Abl positive CML cell line (K562); assay: Cell count assay, viable cells by trypan blue exclusion; type: cell-based, human
Method: Cell count assays were performed by plating cells in the presence of regular growth medium with or without indicated amount of extract, FIG. 2(a), fraction, FIG. 2(b), purified compound, FIG. 2(e), and its sodium salt, FIG. 2 (d). Each day, viable cells were counted as assessed by exclusion of try pan blue, FIG. 2(e).

[3] = test system: STI571-sensitive K562 cells; assay: Proliferation by [3H]thymidine uptake; type: cell-based, human; conditions: 48 h, graded concentrations, FIG. 6
Method: (§1) FIG. 6. […] K562 and K562-R cells were incubated with graded concentrations of ST1571 (A) or NaChl (B) for 48 h, proliferation was then determined by [^3H] thymidine uptake.
(§2) K562 and STI571-resistant K562 cells (K562-R) were incubated with graded concentrations of ST1571 or NaChl for 48 hours, proliferation was then determined by [^3H]thymidine uptake.

[4] = test system: STI571-resistant K562 cells (K562-R); assay: Proliferation by [3H]thymidine uptake; type: cell-based, human; conditions: 48 h, graded concentrations, FIG. 6
Method: as §1
K562 cells were incubated with increasing concentrations of STI571 (received as gift in the form of Gleevec from a CML patient receiving Gleevec therapy), and surviving cells were collected by centrifugation and treated with 2-fold higher concentrations of STI571 (Donato, N. J. et al. Blood, 101:690-698, 2003).
as §2

[5] = test system: PBMC of Bcr-Abl negative CML patients; assay: Immunoblot detection of caspase 3 activation; type: cell-based, human; conditions: 24 h, FIG. 3d
Method: (§3) FIG. 3(d). Treatment with NaChl leads to activation of procaspase-3 in Ph+ cells. Cells were left untreated or treated with NaChl (T) for 24 h. Cells were harvested, lysed, equivalent amount of lysates were separated by SDS-PAGE and electrotransferred. The filters were probed with anti-caspase-3 that recognize both procaspase3 (32 Kda, upper band) and caspase-3 cleavage product (17 Kda, lower band).
(§4) Immunoblot assay. Cells were harvested, lysed, equivalent amount of lysates were separated by SDS-PAGE and electro-transferred. The filters were probed with anti-caspase-3 antibody (B.D. Pharmingen), anti-c-Abl antibody or anti-phospho-c-Abl antibody (Cell Signaling Technology).

[6] = test system: PBMC of Bcr-Abl (Ph) positive CML patients; assay: Immunoblot detection of caspase 3 activation; type: cell-based, human; conditions: 24 h, FIG. 3d
Method: as §3, §4

[7] = test system: K562 cells; assay: Immunoblot detection of caspase 3 activation; type: cell-based, human; conditions: 24 h, FIG. 3d
Method: as §3, §4

[8] = test system: PBMC of normal donors; assay: Immunoblot detection of caspase 3 activation; type: cell-based, human; conditions: 24 h, FIG. 3d
Method: as §3, §4

[9] = test system: K562 cells; assay: DNA cell cycle analysis (PI staining); type: cell-based, human; conditions: 1 or 2 days culture, FIG. 3b
Method: (§5) FIG. 3(b). Treatment with NaChl results in early cell cycle arrest followed by apoptosis in Ph^+ cells. Cells were cultured in the presence or absence of NaChl. After 1 or 2 days in culture, cells were collected, permeabilized, and stained with PI for DNA content analysis. Gates were set to assess the percentages of dead (<2n DNA, M1). G0/G1 (2n DNA, M2), and S+G2+M (>2n DNA, M3) cells.
(§6) DNA cell cycle analysis. Cells were cultured with NaChl as described in example 5. After 1 or 2 days culture, cells were collected, permeabilized and stained with PI for DNA cell cycle analysis.

[10] = test system: PBMC of Bcr-Abl positive CML patients; assay: DNA cell cycle analysis (PI staining); type: cell-based, human; conditions: 1 or 2 days culture, FIG. 3b
Method: as §5, §6

[11] = test system: K562 xenografts; assay: In vivo studies on K562 xenografts in nude mice; design: species or system mouse; conditions: 25-150 mg/kg intraperitoneally once a day for 10 days, FIG. 5
Method: FIG. 5. K562 cells embedded in Matrigel were staged in nude mice until tumors reached 200-300 mm^3. PBS (●), NaChl (25 mg/kg, □; 100 mg/kg, A; 150 mg/kg, ∘) were administered intraperitoneally once a day for ten days.
In vivo studies on K562 xenografts: K562 cells were suspended to 5×10^7 cells/ml in matrigel (BD Biosciences, Mountain View, Calif.; 1 volume of cells with 1 volume of cold Matrigel). Nude female mice 6 to 7 weeks of age were given injections of 0.2 ml of this suspension. Animals were left untreated until K562 xenografts reached 200-300 mm^3. […] Phosphate buffered saline (PBS, 0.2 ml per mouse) was used as a control. Animal studies were conducted under an approved institutional Animal Care and Use Committee protocol.

[12] = test system: K562 cells; assay: Morphology analysis by phase contrast microscopy; type: cell-based, human; conditions: 67.5 nmole/10^5 cells, 6 h, FIG. 2f
Method: (§7) FIG. 2. […] The flow diagram of purification is shown. […] Cell count assays were performed by plating cells in the presence of regular growth medium with or without indicated amount of extract, FIG. 2(a), fraction, FIG. 2(b), purified compound, FIG. […], and its sodium salt, FIG. 2 (d). Each day, viable cells were counted as assessed by exclusion of try pan blue, FIG. […]. Viability of PBMC obtained from three Ph^+ CML patients and one Ph^− CML patient after treatment with Na-Chl (67.5 nmole/10^5 cells), FIG. 2(f), Morphological changes of K562 cells after treatment with NaChl (67.5 nmole/10^5 cells) for 6 h (phase contrast micrographs, ×400).
Morphology analysis of Bcr-Abl positive CML cell line K562 by phase contrast microscopy. Cells were left untreated (NT) or treated with NaChl (Nachl; 67.5 nmole/10^5 cells) and viewed under phase contrast microscope (magnification ×400).

[13] = test system: Molt-4 cells; assay: Immunoblot detection of caspase 3 activation; type: cell-based; conditions: 24 h, FIG. 3d
Method: as §3, §4

[14] = test system: K562 cells; assay: Confocal microscopy, Annexin V staining; type: cell-based, human; conditions: K562, FIG. 3c
Method: (§8) FIG. 3(e). Fluorescence images of K562 and Molt-4 cells after treatment with NaChl followed by staining with annexin V-Allexa™ staining with annex in V are shown in left panels and bright filed phase contrast views are shown in right panels.
(§9) Confocal microscopy. K562 and Molt-4 cells were treated with NaChl followed by staining with Annexin-V -Allexa™ as described in example 5, and allowed to adhere onto poly-L-lysine-coated coverslips for 10 min. Representative fields of cells were analysed with a Leica TCS SP2 confocal laser scanning microscope (Heidelberg, Germany).

[15] = test system: Molt-4 cells; assay: Confocal microscopy, Annexin V staining; type: cell-based; conditions: Molt-4, FIG. 3c
Method: as §8, §9

[16] = target: T1, Bcr-Abl protein tyrosine kinase (Homo sapiens, UniProt P00519); assay: Abl phosphorylation status by flow cytometry and immunoblot; type: cell-based; conditions: 3 h, anti-phospho-c-Abl (Tyr245), FIG. 4a, 4b
T1 construct: triggering apoptosis of Bcr-Abl expressing CML cell line K562; BCR N-terminal portion (natural fusion partner, P11274); endogenous in cells; host or cells: Ph+ cells: K562 and PBMC of Bcr-Abl positive CML patients; the other entry of the earlier key: BCR (P11274, Breakpoint cluster region protein)
Method: FIG. 4(a) Flow cytometric determination of Abl phosphorylation status. Cells were left untreated (NT) or incubated with NaChl (T) for 3 h, permeabilized and stained with rabbit anti-phospho-c-Abl (Tyr245) antibody. Dotted line, staining with normal rabbit IgG; solid line, staining with immune IgG.
(§10) FIG. 4(b) Immuno-blot-based determination of Abl phosphorylation status. Cells were harvested, lysed, equivalent amount Iysates were separated by SDS-P AGE and electrotransferred. The filters were probed with anti-phospho-c-Abl (Tyr 245) (upper panels) or anti-c-Abl antibody (middle panels).
as §4
(§11) Flow cytometric determination of Abl phosphorylation or Abl expression status. Cells were permeabelysed, stained with rabbit anti-phospho-c-Abl antibody, anti-c-Abl antibody or control rabbit antibody and analysed in a flow cytometer.

[17] = test system: PBMC of Bcr-Abl negative CML patients; assay: Apoptosis by flow cytometry (annexin V-FITC/PI); type: cell-based, human; conditions: 67.5 nmole/10^5 cells, 6 h, FIG. 3a
Method: (§12) FIG. 3(a). Cells were left untreated (NT) or incubated with NaChl (67.5 nmole/10^5 cells) for 6 h and processed for flow cytometry after staining with annexin V-FITC and PI. Viable cells are in the lower left quadrant. Apoptotic cells stained by annexin V are in the lower right quadrant. Late stage apoptotic cells stained by both annexin V and PI are in the upper right quadrant.
(§13) Measurement of apoptosis by flow cytometry. Cells were left untreated or treated with NaChl (67.5 nmole/10^5 cells) for 6 h. After washing, cells were stained with fluorescein isothyocyanate (FITC) conjugated Annexin V and propidium iodide (PI) and analysed in a flow cytometer (FACS Calibur, Beckton Dickinson, USA).

[18] = test system: K562 cells; assay: Apoptosis by flow cytometry (annexin V-FITC/PI); type: cell-based, human; conditions: 67.5 nmole/10^5 cells, 6 h, FIG. 3a
Method: as §12, §13

[19] = test system: normal PBMC; assay: Apoptosis by flow cytometry (annexin V-FITC/PI); type: cell-based, human; conditions: 67.5 nmole/10^5 cells, 6 h, FIG. 3a
Method: as §12, §13

[20] = test system: PBMC of Bcr-Abl positive CML patients; assay: Apoptosis by flow cytometry (annexin V-FITC/PI); type: cell-based, human; conditions: 67.5 nmole/10^5 cells, 6 h, FIG. 3a
Method: as §12, §13

[21] = test system: Molt-4 cells; assay: Apoptosis by flow cytometry (annexin V-FITC/PI); type: cell-based; conditions: 67.5 nmole/10^5 cells, 6 h, FIG. 3a
Method: as §12, §13

[22] = test system: Bcr-Abl negative CML patients PBMC; assay: Viability of CML patients' PBMC; type: cell-based, human; conditions: 67.5 nmole/10^5 cells, FIG. 2e; listed as NaChl
Method: as §7
(§14) Culture of Bcr-Abl positive CML cell line (K562), peripheral blood cells of CML patients, Bcr-Abl-negative ALL cell line (Molt-4) and peripheral blood cells of CML patients. Cell count assays were performed by plating cells in the presence of regular growth medium with or without indicated amount of extract, fraction, purified compound and its sodium salt. Each day, viable cells were counted as assessed by exclusion of trypan blue.

[23] = test system: Philadelphia chromosome (Bcr-Abl) positive CML patients PBMC; assay: Viability of CML patients' PBMC; type: cell-based, human; conditions: 67.5 nmole/10^5 cells, FIG. 2e; listed as NaChl
Method: as §7, §14

[24] = test system: Abl protein; assay: Abl expression status by flow cytometry and immunoblot; type: cell-based, human; conditions: anti-c-Abl antibody, FIG. 4b, 4c
Description: as §10
FIG. 4(c) Flow cytometric determination of Abl expression status. Cells were permeabilized and stained with rabbit anti-c-Abl antibody. Dotted line, staining with normal rabbit IgG; solid line, staining with immune IgG.
as §4, §11

[25] = PHA 2.5 μg/ml + LPS 1.0 μg/ml + Chl 25 μg/ml

T1 sequence (P00519 28-1130 limits assumed): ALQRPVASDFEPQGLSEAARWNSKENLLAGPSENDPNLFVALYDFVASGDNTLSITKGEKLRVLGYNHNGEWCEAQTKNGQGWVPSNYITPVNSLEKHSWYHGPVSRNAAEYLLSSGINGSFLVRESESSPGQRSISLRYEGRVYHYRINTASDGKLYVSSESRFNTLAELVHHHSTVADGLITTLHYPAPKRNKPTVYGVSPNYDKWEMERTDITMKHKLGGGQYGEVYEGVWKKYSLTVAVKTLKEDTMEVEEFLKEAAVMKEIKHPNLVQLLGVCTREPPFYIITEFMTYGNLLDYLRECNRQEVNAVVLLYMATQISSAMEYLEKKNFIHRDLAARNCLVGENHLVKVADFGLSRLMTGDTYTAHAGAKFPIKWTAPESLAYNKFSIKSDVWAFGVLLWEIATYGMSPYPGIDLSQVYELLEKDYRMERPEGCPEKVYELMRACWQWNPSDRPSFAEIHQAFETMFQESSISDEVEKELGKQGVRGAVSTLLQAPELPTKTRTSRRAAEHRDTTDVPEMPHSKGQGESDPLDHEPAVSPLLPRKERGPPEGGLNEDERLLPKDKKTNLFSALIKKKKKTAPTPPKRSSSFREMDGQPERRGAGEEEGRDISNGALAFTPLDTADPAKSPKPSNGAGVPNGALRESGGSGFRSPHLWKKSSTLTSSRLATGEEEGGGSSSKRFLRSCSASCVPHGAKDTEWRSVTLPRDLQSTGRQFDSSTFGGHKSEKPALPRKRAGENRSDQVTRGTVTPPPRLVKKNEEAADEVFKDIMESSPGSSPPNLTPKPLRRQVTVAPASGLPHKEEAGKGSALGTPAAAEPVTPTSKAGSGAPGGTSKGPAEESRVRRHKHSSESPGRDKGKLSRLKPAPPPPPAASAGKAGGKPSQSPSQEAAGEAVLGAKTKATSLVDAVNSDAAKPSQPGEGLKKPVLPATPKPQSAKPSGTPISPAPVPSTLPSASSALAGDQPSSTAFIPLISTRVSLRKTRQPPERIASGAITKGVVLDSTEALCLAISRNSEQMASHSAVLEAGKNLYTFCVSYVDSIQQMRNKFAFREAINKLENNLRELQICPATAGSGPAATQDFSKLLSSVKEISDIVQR

O=C(/C=C/c1ccc(O)c(O)c1)O[C@@H]1C[C@](O)(C(=O)O)C[C@@H](O)[C@H]1O [chlorogenic acid]
Concentration of Cytokines: IFN-γ ([1]; Chl 25 μg/ml alone): 19.4 pg/mL | Concentration of Cytokines: IL-2 ([1]; Chl 25 μg/ml alone): 6.8 pg/mL | Concentration of Cytokines: IL-6 ([1]; Chl 25 μg/ml alone): 781.9 pg/mL | Concentration of Cytokines: IFN-γ [1, 25]: 13.8 pg/mL | Concentration of Cytokines: IL-2 [1, 25]: 2.5 pg/mL | Concentration of Cytokines: IL-6 [1, 25]: 1899.0 pg/mL | production of IL-2, IFN-γ, and IL-6 by HPBMC after stimulation with PHA and LPS ([1]; PHA and LPS stimulation): significantly inhibited | spontaneous production of IL-2, IFN-γ, and IL-6 by HPBMC ([1]; no stimulation): inhibits | IC50 ([2]; Homo sapiens, in vitro, K562 cells, FIGS. 2C & 2D): 27 µM | killing of K562 cells ([2]; cell count, FIG. 2a-2c): higher killing activity of K562 cells compare to crude extract or fraction E

O=C(/C=C/c1ccc(O)c(O)c1)O[C@@H]1C[C@](O)(C(=O)[O-])C[C@@H](O)[C@H]1O.[Na+] [sodium chlorogenate]
apoptosis/proliferation of STI571-sensitive K562 cells [3]: induces apoptosis | production of interferon gamma ([1]; statement referring to Table II): significantly inhibits | apoptosis/proliferation of STI571-resistant K562 cells [4]: induces apoptosis | apoptosis by caspase 3 activation [5]: not | apoptosis by caspase 3 activation [6]: Apoptosis | apoptosis by caspase 3 activation [7]: Apoptosis in K562 cells | apoptosis by caspase 3 activation [8]: not | DNA cell cycle [9]: induces cell cycle arrest followed by breakdown of DNA | DNA cell cycle [10]: induces cell cycle arrest followed by breakdown of DNA | tumor growth of K562 xenografts [11]: reduced the tumor growth in a dose dependent manner | morphological changes in K562 cells [12]: induces morphological changes (nuclear condensation) | apoptosis by caspase 3 activation [13]: not in Molt-4 cells | Annexin V staining (confocal) [14]: positive Annexin V staining | Annexin V staining (confocal) [15]: not in Molt-4 cells | phosphorylation of Bcr-Abl protein tyrosine kinase [16]: inhibits phosphorilation | apoptosis [17]: did not induce apoptosis | apoptosis [18]: increase in apoptosis | apoptosis [19]: remain virtually unaffected | apoptosis ([19]; listed as NaChl): did not induce apoptosis | apoptosis [20]: increase in apoptosis | apoptosis [21]: did not induce apoptosis | effect on Bcr-Abl negative CML patients PBMC [22]: no effect; also recorded: without any effects | killing of Bcr-Abl positive CML patients PBMC [23]: active in killing; also recorded: destroys | expression of Abl protein level [24]: without affecting the expression
